Patent US5661144A, “Cephem derivatives with 3-substituted bis heterocycles” (Meiji Seika Kabushiki Kaisha, priority 1994, dated 1997)
Where a name gives a salt, the structure may show the parent alone.

What was measured:
Experiment in all cases: Antibacterial activity (MIC), conventional two-fold dilution method
Type in all cases: cell-based
C. freundii GN346/16 = conditions: Citrobacter freundii, 10^6 CFU/ml, Medium N, 35° C., 18 to 20 hours
Description: (§1) The test was carried out in the following manner: 10^6 CFU/ml of a bacterium to be tested was inoculated on a Medium N for disc susceptibility test (manufactured by Nissui Pharmaceutical Co., Ltd.), and cultivated at 35° C. for 18 to 20 hours.

E. coli NIHJ JC-2 = conditions: Escherichia coli, NIHJJC2, 10^6 CFU/ml, Medium N, 35° C., 18 to 20 hours
Description: as §1

E. faecalis W-73 = conditions: Enterococcus faecalis, W73, 10^6 CFU/ml, Medium N, 35° C., 18 to 20 hours
Description: as §1

K. pneumoniae PC1602 = conditions: Klebsiella pneumoniae, 10^6 CFU/ml, Medium N, 35° C., 18 to 20 hours
Description: as §1

M. morganii 1510/S-1 = conditions: Morganella morganii, 1510/S1, 10^6 CFU/ml, Medium N, 35° C., 18 to 20 hours
Description: as §1

P. auruginosa E-2 = conditions: 10^6 CFU/ml, Medium N, 35° C., 18 to 20 hours
Description: as §1

P. vulgaris GN76 = conditions: Proteus vulgaris, 10^6 CFU/ml, Medium N, 35° C., 18 to 20 hours
Description: as §1

R. cloacae G-0008 = conditions: 10^6 CFU/ml, Medium N, 35° C., 18 to 20 hours
Description: as §1

S. aureus 209P JC-1 = conditions: Staphylococcus aureus, 10^6 CFU/ml, Medium N, 35° C., 18 to 20 hours
Description: as §1

S. epidermidis ATCC14990 = conditions: Staphylococcus epidermidis, 10^6 CFU/ml, Medium N, 35° C., 18 to 20 hours
Description: as §1

S. marcescens No.1 = conditions: Serratia marcescens, 10^6 CFU/ml, Medium N, 35° C., 18 to 20 hours
Description: as §1

Compound | MIC (C. freundii GN346/16) [µg/mL] | MIC (E. coli NIHJ JC-2) [µg/mL] | MIC (E. faecalis W-73) [µg/mL] | MIC (K. pneumoniae PC1602) [µg/mL] | MIC (M. morganii 1510/S-1) [µg/mL] | MIC (P. auruginosa E-2) [µg/mL] | MIC (P. vulgaris GN76) [µg/mL] | MIC (R. cloacae G-0008) [µg/mL] | MIC (S. aureus 209P JC-1) [µg/mL] | MIC (S. epidermidis ATCC14990) [µg/mL] | MIC (S. marcescens No.1) [µg/mL]
Nc1nc(C(=NOCF)C(=O)NC2C(=O)N3C(C(=O)[O-])=C(C=CC[n+]4cc5sccn5c4)CSC23)ns1 [Example 1, (6R, 7R)-7-[(Z)-2-(5-amino-1,2,4-thiadiazol-3-yl)-2-fluoromethoxyiminoacetamido]-3-[3-(imidazo[5,1-b]-thiazolium-6-yl)-1-propenyl]-3-cephem-4-carboxylate(internal salt)] | 0.05 | < 0.025 | 12.5 | 0.05 | < 0.025 | 12.5 | 0.1 | 0.05 | 0.2 | 0.1 | 0.05
Cc1csc2c[n+](CC=CC3=C(C(=O)[O-])N4C(=O)C(NC(=O)C(=NOCF)c5nsc(N)n5)C4SC3)cn12 [Example 2, (6R, 7R)-7-[(Z)-2-(5-amino-1,2,4-thiadiazol-3-yl)-2-fluoromethoxyiminoacetamido]-3-[3-(3-methylimidazo[5,1-b]thiazolium-6-yl)-1-propenyl]-3-cephem-4-carboxylate (internal salt)] | 0.05 | 0.05 | 12.5 | 0.05 | < 0.025 | 25 | 0.1 | 0.05 | 0.2 | 0.2 | 0.05
NC(=O)c1csc2c[n+](CC=CC3=C(C(=O)[O-])N4C(=O)C(NC(=O)C(=NOCF)c5nsc(N)n5)C4SC3)cn12 [Example 3, (6R, 7R)-7-[(Z)-2-(5-amino-1,2,4-thiadiazol-3-yl)-2-fluoromethoxyiminoacetamido]-3-[3-(3-carbamoylimidazo [5,1-b]thiazolium-6-yl)-1-propenyl]-3-cephem-4-carboxylate (internal salt)] | 0.05 | 0.05 | 12.5 | 0.05 | < 0.025 | 12.5 | 0.1 | 0.05 | 0.2 | 0.2 | 0.05
Nc1nc(C(=NOCF)C(=O)NC2C(=O)N3C(C(=O)[O-])=C(C=CC[n+]4cc5sccn5c4CNC=O)CSC23)ns1 [Example 4, (6R, 7R)-7-[(Z)-2-(5-amino-1,2,4-thiadiazol-3-yl)-2-fluoromethoxyiminoacetamido]-3-[3-(5-formylaminomethylimidazo[5,1-b]thiazolium-6-yl]-1-propenyl]-3-cephem-4-carboxylate (internal salt)] | < 0.025 | < 0.025 | 12.5 | < 0.025 | < 0.025 | 12.5 | 0.1 | 0.05 | 0.39 | 0.2 | 0.05
